Experimental data from PubChem BioAssay AID256 (DTP/NCI, 2004).
Several values for one entry are separate records, joined by “and”; a condition that tells them apart may be missing. Identical values can stand only once. Inconclusive results and toxic doses are left out. Positions of bridges follow the written chain, without caps; N, C: chain ends. Residues, ends and D or L forms follow the SMILES beside them. Chains are numbered I, II in the order given. *: point of attachment. Bz = O=C(c1ccccc1)*

Test system: CD2F1 mice, L1210 leukemia ip, survival T/C
Assay: NCI In Vivo Anticancer Drug Screen. Data for tumor model L1210 Leukemia (intraperitoneal) in CD2F1 (CDF1) mice
Conditions: higher = longer survival
Summary of the method: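 Ratio T/C, where T is the treated-group value and C the vehicle-dosed control value, from mice implanted with a transplantable tumor.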

[1] = endpoint: mean survival time, dose: 100.0 mg/kg/injection, schedule: Q01DX001 (ip), vehicle: saline
[2] = endpoint: mean survival time, dose: 200.0 mg/kg/injection, schedule: Q01DX001 (ip), vehicle: saline
[3] = endpoint: mean survival time, dose: 400.0 mg/kg/injection, schedule: Q01DX001 (ip), vehicle: saline
[4] = endpoint: mean survival time, dose: 100.0 mg/kg/injection, schedule: Q04DX003 (ip), vehicle: saline with Tween-80
[5] = endpoint: mean survival time, dose: 200.0 mg/kg/injection, schedule: Q04DX003 (ip), vehicle: saline with Tween-80
[6] = endpoint: mean survival time, dose: 400.0 mg/kg/injection, schedule: Q04DX003 (ip), vehicle: saline with Tween-80
[7] = endpoint: mean survival time, dose: 100.0 mg/kg/injection, schedule: Q01DX009 (ip), vehicle: saline with Tween-80
[8] = endpoint: mean survival time, dose: 200.0 mg/kg/injection, schedule: Q01DX009 (ip), vehicle: saline with Tween-80
[9] = endpoint: mean survival time, dose: 400.0 mg/kg/injection, schedule: Q01DX009 (ip), vehicle: saline with Tween-80
[10] = endpoint: mean survival time, dose: 100.0 mg/kg/injection, schedule: Q04DX002 (ip), vehicle: saline with Tween-80
[11] = endpoint: mean survival time, dose: 200.0 mg/kg/injection, schedule: Q04DX002 (ip), vehicle: saline with Tween-80
[12] = endpoint: mean survival time, dose: 400.0 mg/kg/injection, schedule: Q04DX002 (ip), vehicle: saline with Tween-80
[13] = endpoint: mean survival time, dose: 100.0 mg/kg/injection, schedule: Q01DX001 (ip), vehicle: saline with Tween-80
[14] = endpoint: mean survival time, dose: 200.0 mg/kg/injection, schedule: Q01DX001 (ip), vehicle: saline with Tween-80
[15] = endpoint: mean survival time, dose: 400.0 mg/kg/injection, schedule: Q01DX001 (ip), vehicle: saline with Tween-80

COC(=O)C(O)C(O)C(O)C(O)C(O)CO (configuration not stated)
T/C [1]: 95 % of control | T/C [2]: 98 % of control | T/C [3]: 96 % of control

Nc1c(Cl)c(Cl)cc(Cl)c1Cl
T/C [4]: 97 % of control | T/C [5]: 102 % of control | T/C [6]: 92 % of control

COC(=O)C1c2cc3c(c(O)c2CCC1(C)O)C(=O)c1c(O)cc2c(c1C3=O)OC1OC2(C)C(O)C(N(C)C)C1O (configuration not stated)
T/C [1]: 103 % of control | T/C [2]: 104 % of control | T/C [3]: 104 % of control

CC(CCc1ccccc1)NC1=NCCO1 (configuration not stated)
T/C [7]: 102 % of control | T/C [4]: 98 % of control | T/C [8]: 95 % of control | T/C [5]: 103 % of control | T/C [9]: 98 % of control | T/C [6]: 95 % of control

O=C=N/C=C/NC(=O)Nc1cccc(Cl)c1
T/C [10]: 104 % of control | T/C [11]: 93 % of control | T/C [12]: 101 % of control

CNc1ncn(-c2c(C)cccc2C)c(=O)n1
T/C (endpoint: median survival time, dose: 3.12 mg/kg/injection, schedule: Q01DX005 (ip), vehicle: Klucel (hydroxypropylcellulose) (HPC)): 101 % of control | T/C (endpoint: median survival time, dose: 6.25 mg/kg/injection, schedule: Q01DX005 (ip), vehicle: Klucel (hydroxypropylcellulose) (HPC)): 97 % of control | T/C (endpoint: median survival time, dose: 12.5 mg/kg/injection, schedule: Q01DX005 (ip), vehicle: Klucel (hydroxypropylcellulose) (HPC)): 102 % of control | T/C (endpoint: median survival time, dose: 25.0 mg/kg/injection, schedule: Q01DX005 (ip), vehicle: Klucel (hydroxypropylcellulose) (HPC)): 100 % of control | T/C (endpoint: median survival time, dose: 50.0 mg/kg/injection, schedule: Q01DX005 (ip), vehicle: Klucel (hydroxypropylcellulose) (HPC)): 108 % of control | T/C (endpoint: median survival time, dose: 50.0 mg/kg/injection, schedule: Q01DX005 (ip), vehicle: saline with Tween-80): 119 % of control and 98 % of control and 102 % of control | T/C (endpoint: median survival time, dose: 100.0 mg/kg/injection, schedule: Q01DX005 (ip), vehicle: saline with Tween-80): 123 % of control and 98 % of control and 110 % of control | T/C (endpoint: median survival time, dose: 200.0 mg/kg/injection, schedule: Q01DX005 (ip), vehicle: saline with Tween-80): 122 % of control and 107 % of control

CC(=O)c1ccc(CCCCCCCC(=O)O)o1
T/C (endpoint: mean survival time, dose: 50.0 mg/kg/injection, schedule: Q01DX001 (ip), vehicle: Klucel (hydroxypropylcellulose) (HPC)): 97 % of control | T/C (endpoint: mean survival time, dose: 100.0 mg/kg/injection, schedule: Q01DX001 (ip), vehicle: Klucel (hydroxypropylcellulose) (HPC)): 101 % of control | T/C (endpoint: mean survival time, dose: 200.0 mg/kg/injection, schedule: Q01DX001 (ip), vehicle: Klucel (hydroxypropylcellulose) (HPC)): 94 % of control

CCC(=O)OCc1cc2ccccc2c(-c2c(O)c(CN3CCOCC3)cc3ccccc23)c1O
T/C [10]: 95 % of control | T/C [11]: 91 % of control | T/C [12]: 91 % of control

O=C1CC(NC(=O)C(F)(F)F)C(=O)O1 (configuration not stated)
T/C (endpoint: mean survival time, dose: 100.0 mg/kg/injection, schedule: Q04DX003 (ip), vehicle: saline): 94 % of control | T/C (endpoint: mean survival time, dose: 200.0 mg/kg/injection, schedule: Q04DX003 (ip), vehicle: saline): 95 % of control | T/C (endpoint: mean survival time, dose: 400.0 mg/kg/injection, schedule: Q04DX003 (ip), vehicle: saline): 94 % of control

CCCCOC(=O)c1cc([N+](=O)[O-])c(Sc2ncnc3nc[nH]c23)c([N+](=O)[O-])c1
T/C (endpoint: mean survival time, dose: 0.63 mg/kg/injection, schedule: Q01DX005 (ip), vehicle: other): 106 % of control | T/C (endpoint: mean survival time, dose: 1.25 mg/kg/injection, schedule: Q01DX005 (ip), vehicle: other): 104 % of control | T/C (endpoint: mean survival time, dose: 2.5 mg/kg/injection, schedule: Q01DX005 (ip), vehicle: other): 106 % of control | T/C (endpoint: mean survival time, dose: 5.0 mg/kg/injection, schedule: Q01DX005 (ip), vehicle: other): 106 % of control | T/C (endpoint: mean survival time, dose: 10.0 mg/kg/injection, schedule: Q01DX005 (ip), vehicle: other): 114 % of control | T/C (endpoint: mean survival time, dose: 15.0 mg/kg/injection, schedule: Q01DX005 (ip), vehicle: other): 120 % of control

Oc1c(Cl)cc(Cl)cc1C=NCCSc1ccc(Cl)cc1
T/C (endpoint: median survival time, dose: 25.0 mg/kg/injection, schedule: Q01DX009 (ip), vehicle: Klucel (hydroxypropylcellulose) (HPC)): 112 % of control | T/C (endpoint: median survival time, dose: 50.0 mg/kg/injection, schedule: Q01DX009 (ip), vehicle: Klucel (hydroxypropylcellulose) (HPC)): 101 % of control | T/C (endpoint: median survival time, dose: 100.0 mg/kg/injection, schedule: Q01DX009 (ip), vehicle: Klucel (hydroxypropylcellulose) (HPC)): 97 % of control | T/C (endpoint: median survival time, dose: 200.0 mg/kg/injection, schedule: Q01DX009 (ip), vehicle: Klucel (hydroxypropylcellulose) (HPC)): 100 % of control

CC(=O)NNC(=O)c1ccc(N(C)C)cc1
T/C (endpoint: mean survival time, dose: 12.5 mg/kg/injection, schedule: Q01DX009 (ip), vehicle: other): 92 % of control | T/C (endpoint: mean survival time, dose: 25.0 mg/kg/injection, schedule: Q01DX009 (ip), vehicle: other): 88 % of control | T/C (endpoint: mean survival time, dose: 50.0 mg/kg/injection, schedule: Q01DX009 (ip), vehicle: other): 88 % of control | T/C (endpoint: mean survival time, dose: 100.0 mg/kg/injection, schedule: Q01DX009 (ip), vehicle: other): 92 % of control | T/C (endpoint: mean survival time, dose: 200.0 mg/kg/injection, schedule: Q01DX009 (ip), vehicle: other): 92 % of control

CC(=O)Nc1ccc(N=NN(C)C)cc1
T/C (endpoint: mean survival time, dose: 4.68 mg/kg/injection, schedule: Q01DX009 (ip), vehicle: Klucel (hydroxypropylcellulose) (HPC)): 106 % of control and 109 % of control | T/C (endpoint: mean survival time, dose: 9.37 mg/kg/injection, schedule: Q01DX009 (ip), vehicle: Klucel (hydroxypropylcellulose) (HPC)): 114 % of control and 116 % of control

CC(C)c1ccccc(=O)c1O.CC(C)c1ccccc(=O)c1O.[Cu]
T/C (endpoint: mean survival time, dose: 6.25 mg/kg/injection, schedule: Q01DX009 (ip), vehicle: saline with Tween-80): 102 % of control | T/C (endpoint: mean survival time, dose: 12.5 mg/kg/injection, schedule: Q01DX009 (ip), vehicle: saline with Tween-80): 100 % of control | T/C (endpoint: mean survival time, dose: 25.0 mg/kg/injection, schedule: Q01DX009 (ip), vehicle: saline with Tween-80): 103 % of control

Cc1cc(N=Nc2ccccc2)cc(C)c1N
T/C [7]: 96 % of control | T/C [4]: 97 % of control | T/C [8]: 102 % of control | T/C [5]: 98 % of control | T/C [9]: 98 % of control | T/C [6]: 110 % of control

OCC1OC(n2cnc3c(=S)nc(NO)[nH]c32)C(O)C1O (configuration not stated)
T/C (endpoint: mean survival time, dose: 6.25 mg/kg/injection, schedule: Q01DX005 (ip), vehicle: saline with Tween-80): 196 % of control and 237 % of control | T/C (endpoint: mean survival time, dose: 12.5 mg/kg/injection, schedule: Q01DX005 (ip), vehicle: saline with Tween-80): 164 % of control and 263 % of control | T/C (endpoint: mean survival time, dose: 25.0 mg/kg/injection, schedule: Q01DX005 (ip), vehicle: saline with Tween-80): 102 % of control | T/C (endpoint: mean survival time, dose: 50.0 mg/kg/injection, schedule: Q01DX005 (ip), vehicle: saline with Tween-80): 89 % of control

CCOC(=O)C(C)Sc1n[nH]c(=O)[nH]c1=O (configuration not stated)
T/C (endpoint: mean survival time, dose: 12.5 mg/kg/injection, schedule: Q01DX005 (ip), vehicle: distilled water + Tween-80): 96 % of control | T/C (endpoint: mean survival time, dose: 25.0 mg/kg/injection, schedule: Q01DX005 (ip), vehicle: distilled water + Tween-80): 96 % of control | T/C (endpoint: mean survival time, dose: 50.0 mg/kg/injection, schedule: Q01DX005 (ip), vehicle: distilled water + Tween-80): 96 % of control | T/C (endpoint: mean survival time, dose: 100.0 mg/kg/injection, schedule: Q01DX005 (ip), vehicle: distilled water + Tween-80): 92 % of control | T/C (endpoint: mean survival time, dose: 200.0 mg/kg/injection, schedule: Q01DX005 (ip), vehicle: distilled water + Tween-80): 94 % of control

O=[N+]([O-])c1ccc(Sc2ccc(Br)cc2)cc1
T/C [13]: 97 % of control | T/C [14]: 106 % of control | T/C [15]: 104 % of control

ClCCN(CCCl)c1ccc(CCCCN2CCOCC2)cc1
T/C (endpoint: mean survival time, dose: 10.0 mg/kg/injection, schedule: Q01DX009 (ip), vehicle: saline): 119 % of control | T/C (endpoint: mean survival time, dose: 40.0 mg/kg/injection, schedule: Q01DX009 (ip), vehicle: saline): 103 % of control

CCC[CH2][Sn]([CH2]CCC)([O]C(=O)COc1ccc(C(=O)c2ccccc2)c(O)c1)[O]C(=O)COc1ccc(C(=O)c2ccccc2)c(O)c1
T/C (endpoint: mean survival time, dose: 1.56 mg/kg/injection, schedule: Q01DX001 (ip), vehicle: saline with Tween-80): 95 % of control | T/C (endpoint: mean survival time, dose: 3.13 mg/kg/injection, schedule: Q01DX001 (ip), vehicle: saline with Tween-80): 98 % of control | T/C (endpoint: mean survival time, dose: 6.25 mg/kg/injection, schedule: Q01DX001 (ip), vehicle: saline with Tween-80): 98 % of control | T/C (endpoint: mean survival time, dose: 12.5 mg/kg/injection, schedule: Q01DX001 (ip), vehicle: saline with Tween-80): 105 % of control

COC(=O)C(CSSCC(NC(=O)CNC(=O)c1ccccc1)C(=O)OC)NC(=O)CNC(=O)c1ccccc1 (stereo not drawn) (I: Bz-Gly-Cys-OMe / II: Bz-Gly-Cys-OMe; disulfide I:2-II:2; configuration not given here)
T/C [13]: 108 % of control | T/C [7]: 87 % of control | T/C [14]: 102 % of control | T/C [8]: 87 % of control | T/C [15]: 97 % of control

NS(=O)(=O)c1ccc(NC(=S)NC(=O)c2cccc3ccccc23)cc1
T/C [7]: 93 % of control | T/C [8]: 93 % of control | T/C [9]: 93 % of control
